Results as given in ChEMBL document CHEMBL1128323, “Antifungal agents. 9. 3-Aryl-4-[alpha-(1H-imidazol-1-yl)arylmethyl]pyrroles: a new class of potent anti-Candida agents” (1995).
Converted amounts (≈) assume the structure as drawn.

Assays:
Assay type in all cases: functional
[1] = system: Candida albicans; experiment: Percent resistance against Candida albicans (40 clinical isolates) at 256 micro g/mL (pH=5.8), activity is expressed as R%.
[2] = system: Candida albicans; experiment: Resistance against Candida. albicans (40 clinical isolates) at 256 ug/mL (pH=7.2), activity is expressed as R%.
[3] = system: Candida albicans; experiment: Inhibitory activity against Candida albicans (40 clinical isolates), determined at pH-5.8
[4] = system: Candida albicans; experiment: Inhibitory activity against Candida albicans (40 clinical isolates), determined at pH-7.2
[5] = system: Candida; experiment: Inhibitory activity against Candida. species. (40 clinical isolates), determined at pH-5.8
[6] = system: Candida; experiment: Inhibitory activity against Candida. species. (40 clinical isolates), determined at pH-7.2
[7] = system: Candida; experiment: Inhibitory activity against Candida. species (40 clinical isolates), determined at pH-5.8
[8] = system: Candida; experiment: 50% inhibitory activity against the Candida. species (40 clinical isolates) was determined at pH-7.2
[9] = system: Candida; experiment: 90% inhibitory activity against Candida. species (40 clinical isolates) determined at pH-7.2
[10] = system: Candida; experiment: Resistance against all Candida. species (40 clinical isolates) at 256 micro g/mL (pH=5.8). Activity is expressed as R%.
[11] = system: Candida; experiment: Percent resistance against all Candida. species (40 clinical isolates) at 256 micro g/mL (pH=7.2), activity is expressed as R%.
[12] = system: Candida albicans; experiment: Inhibitory activity against the Candida albicans (40 clinical isolates), determined at pH-5.8
[13] = system: Candida albicans; experiment: Inhibitory activity against the Candida albicans (40 clinical isolates), determined at pH-7.2
[14] = system: Candida albicans; experiment: 50% inhibitory activity against Candida albicans (40 clinical isolates) determined at pH-5.8
[15] = system: Candida albicans; experiment: 50% inhibitory activity against Candida albicans (40 clinical isolates) determined at pH-7.2
[16] = Candida albicans, read-out: MIC50

## c1ccc(-c2c[nH]cc2C(c2ccc(-n3cccc3)cc2)n2ccnc2)cc1 (stereo not given)
[1]
  R: 0%
[2]
  R: 0%
[3]
  MIC: 30.4 µg/mL (≈ 83.4 µM)
[4]
  MIC: 37.3 µg/mL (≈ 102 µM)
[5]
  MIC: 40 µg/mL (≈ 110 µM)
[6]
  MIC: 42.1 µg/mL (≈ 116 µM)
[7]
  MIC50: 32 µg/mL (≈ 87.8 µM)
  MIC90: 64 µg/mL (≈ 176 µM)
[8]
  MIC50: 32 µg/mL (≈ 87.8 µM)
[9]
  MIC90: 64 µg/mL (≈ 176 µM)
[10]
  R: 0%
[11]
  R: 0%
[12]
  MIC90: 32 µg/mL (≈ 87.8 µM)
[13]
  MIC90: 32 µg/mL (≈ 87.8 µM)
[14]
  MIC50: 16 µg/mL (≈ 43.9 µM)
[15]; [16]
  MIC50: 16 µg/mL (≈ 43.9 µM)

## Clc1ccc(C(c2c[nH]cc2-c2ccccc2)n2ccnc2)cc1Cl (stereo not given)
[1]
  R: 0%
[2]
  R: 0%
[3]
  MIC: 38.6 µg/mL (≈ 105 µM)
[4]
  MIC: 41.9 µg/mL (≈ 114 µM)
[5]
  MIC: 114 µg/mL (≈ 311 µM)
[6]
  MIC: 191 µg/mL (≈ 519 µM)
[7]
  MIC50: 64 µg/mL (≈ 174 µM)
  MIC90: 64 µg/mL (≈ 174 µM)
[8]
  MIC50: 128 µg/mL (≈ 348 µM)
[9]
  MIC90: 256 µg/mL (≈ 695 µM)
[10]
  R: 0%
[11]
  R: 20%
[12]
  MIC90: 64 µg/mL (≈ 174 µM)
[13]
  MIC90: 64 µg/mL (≈ 174 µM)
[14]
  MIC50: 16 µg/mL (≈ 43.4 µM)
[15]; [16]
  MIC50: 16 µg/mL (≈ 43.4 µM)

## Clc1ccc(C(c2c[nH]cc2-c2ccccc2Cl)n2ccnc2)cc1 (stereo not given)
[1]
  R: 0%
[2]
  R: 0%
[3]
  MIC: 18.7 µg/mL (≈ 50.8 µM)
[4]
  MIC: 9.1 µg/mL (≈ 24.7 µM)
[5]
  MIC: 30.2 µg/mL (≈ 82 µM)
[6]
  MIC: 15 µg/mL (≈ 40.7 µM)
[7]
  MIC50: 32 µg/mL (≈ 86.9 µM)
  MIC90: 64 µg/mL (≈ 174 µM)
[8]
  MIC50: 16 µg/mL (≈ 43.4 µM)
[9]
  MIC90: 16 µg/mL (≈ 43.4 µM)
[10]
  R: 0%
[11]
  R: 0%
[12]
  MIC90: 32 µg/mL (≈ 86.9 µM)
[13]
  MIC90: 16 µg/mL (≈ 43.4 µM)
[15]
  MIC50: 16 µg/mL (≈ 43.4 µM)
[15]; [16]
  MIC50: 8 µg/mL (≈ 21.7 µM)

## Clc1ccc(-c2c[nH]cc2C(c2ccc(Cl)cc2Cl)n2ccnc2)cc1 (stereo not given)
[1]
  R: 0%
[2]
  R: 0%
[3]
  MIC: 3.94 µg/mL (≈ 9.78 µM)
[4]
  MIC: 3.6 µg/mL (≈ 8.94 µM)
[5]
  MIC: 14.4 µg/mL (≈ 35.8 µM)
[6]
  MIC: 61 µg/mL (≈ 151 µM)
[7]
  MIC50: 16 µg/mL (≈ 39.7 µM)
  MIC90: 32 µg/mL (≈ 79.5 µM)
[8]
  MIC50: 32 µg/mL (≈ 79.5 µM)
[9]
  MIC90: 128 µg/mL (≈ 318 µM)
[10]
  R: 0%
[11]
  R: 0%
[12]
  MIC90: 8 µg/mL (≈ 19.9 µM)
[13]
  MIC90: 8 µg/mL (≈ 19.9 µM)
[14]
  MIC50: 2 µg/mL (≈ 4.97 µM)
[15]; [16]
  MIC50: 2 µg/mL (≈ 4.97 µM)

## Cc1ccc(C(c2c[nH]cc2-c2ccc(Cl)cc2Cl)n2ccnc2)cc1 (stereo not given)
[1]
  R: 0%
[2]
  R: 0%
[3]
  MIC: 7.9 µg/mL (≈ 20.7 µM)
[4]
  MIC: 13.1 µg/mL (≈ 34.3 µM)
[5]
  MIC: 16.4 µg/mL (≈ 42.9 µM)
[6]
  MIC: > 224 µg/mL
[7]
  MIC50: 16 µg/mL (≈ 41.9 µM)
  MIC90: 32 µg/mL (≈ 83.7 µM)
[8]
  MIC50: 256 µg/mL (≈ 670 µM)
[9]
  MIC90: > 256 µg/mL
[10]
  R: 0%
[11]
  R: 50%
[12]
  MIC90: 16 µg/mL (≈ 41.9 µM)
[13]
  MIC90: 16 µg/mL (≈ 41.9 µM)
[14]
  MIC50: 8 µg/mL (≈ 20.9 µM)
[15]; [16]
  MIC50: 8 µg/mL (≈ 20.9 µM)

## Clc1ccccc1-c1c[nH]cc1C(c1ccccc1)n1ccnc1 (stereo not given)
[1]
  R: 0%
[2]
  R: 0%
[3]
  MIC: 43.8 µg/mL (≈ 131 µM)
[4]
  MIC: 19.2 µg/mL (≈ 57.5 µM)
[5]
  MIC: 78.2 µg/mL (≈ 234 µM)
[6]
  MIC: 22.6 µg/mL (≈ 67.7 µM)
[7]
  MIC50: 64 µg/mL (≈ 192 µM)
  MIC90: 32 µg/mL (≈ 95.9 µM)
[8]
  MIC50: 32 µg/mL (≈ 95.9 µM)
[9]
  MIC90: 64 µg/mL (≈ 192 µM)
[10]
  R: 0%
[11]
  R: 0%
[12]
  MIC90: 64 µg/mL (≈ 192 µM)
[13]
  MIC90: 32 µg/mL (≈ 95.9 µM)
[15]
  MIC50: 32 µg/mL (≈ 95.9 µM)
[15]; [16]
  MIC50: 16 µg/mL (≈ 47.9 µM)

## Clc1ccc(C(c2c[nH]cc2-c2ccccc2Cl)n2ccnc2)c(Cl)c1 (stereo not given)
[1]
  R: 0%
[2]
  R: 0%
[3]
  MIC: 5.19 µg/mL (≈ 12.9 µM)
[4]
  MIC: 7.3 µg/mL (≈ 18.1 µM)
[5]
  MIC: 13.7 µg/mL (≈ 34 µM)
[6]
  MIC: 21.8 µg/mL (≈ 54.1 µM)
[7]
  MIC50: 16 µg/mL (≈ 39.7 µM)
  MIC90: 16 µg/mL (≈ 39.7 µM)
[8]
  MIC50: 32 µg/mL (≈ 79.5 µM)
[9]
  MIC90: 32 µg/mL (≈ 79.5 µM)
[10]
  R: 0%
[11]
  R: 0%
[12]
  MIC90: 16 µg/mL (≈ 39.7 µM)
[13]
  MIC90: 16 µg/mL (≈ 39.7 µM)
[14]
  MIC50: 4 µg/mL (≈ 9.93 µM)
[15]; [16]
  MIC50: 4 µg/mL (≈ 9.93 µM)

## Clc1ccc(-c2c[nH]cc2C(c2ccccc2)n2ccnc2)cc1Cl (stereo not given)
[1]
  R: 0%
[2]
  R: 0%
[3]
  MIC: 7.2 µg/mL (≈ 19.6 µM)
[4]
  MIC: > 10.9 µg/mL
[5]
  MIC: 19.1 µg/mL (≈ 51.9 µM)
[6]
  MIC: 11.4 µg/mL (≈ 31 µM)
[7]
  MIC50: 16 µg/mL (≈ 43.4 µM)
  MIC90: 32 µg/mL (≈ 86.9 µM)
[8]
  MIC50: 16 µg/mL (≈ 43.4 µM)
[9]
  MIC90: 16 µg/mL (≈ 43.4 µM)
[10]
  R: 0%
[11]
  R: 0%
[12]
  MIC90: 16 µg/mL (≈ 43.4 µM)
[13]
  MIC90: 16 µg/mL (≈ 43.4 µM)
[14]
  MIC50: 8 µg/mL (≈ 21.7 µM)
[15]; [16]
  MIC50: 6 µg/mL (≈ 16.3 µM)

## Fc1ccc(C(c2c[nH]cc2-c2ccc(Cl)c(Cl)c2)n2ccnc2)cc1 (stereo not given)
[1]
  R: 0%
[2]
  R: 0%
[3]
  MIC: 7.2 µg/mL (≈ 18.6 µM)
[4]
  MIC: 7.2 µg/mL (≈ 18.6 µM)
[5]
  MIC: 16.4 µg/mL (≈ 42.5 µM)
[6]
  MIC: 26.6 µg/mL (≈ 68.9 µM)
[7]
  MIC50: 16 µg/mL (≈ 41.4 µM)
  MIC90: 32 µg/mL (≈ 82.8 µM)
[8]
  MIC50: 32 µg/mL (≈ 82.8 µM)
[9]
  MIC90: 32 µg/mL (≈ 82.8 µM)
[10]
  R: 0%
[11]
  R: 0%
[12]
  MIC90: 16 µg/mL (≈ 41.4 µM)
[13]
  MIC90: 16 µg/mL (≈ 41.4 µM)
[14]
  MIC50: 4 µg/mL (≈ 10.4 µM)
[15]; [16]
  MIC50: 4 µg/mL (≈ 10.4 µM)

## O=[N+]([O-])c1ccc(C(c2c[nH]cc2-c2ccc(Cl)cc2)n2ccnc2)cc1 (stereo not given)
[1]
  R: 0%
[2]
  R: 0%
[3]
  MIC: > 60.1 µg/mL
[4]
  MIC: > 91.8 µg/mL
[5]
  MIC: > 355 µg/mL
[6]
  MIC: > 91.8 µg/mL
[7]
  MIC50: > 256 µg/mL
  MIC90: > 256 µg/mL
[8]
  MIC50: 32 µg/mL (≈ 84.5 µM)
[9]
  MIC90: 64 µg/mL (≈ 169 µM)
[10]
  R: 60%
[11]
  R: 10%
[12]
  MIC90: 32 µg/mL (≈ 84.5 µM)
[13]
  MIC90: 64 µg/mL (≈ 169 µM)
[14]
  MIC50: 16 µg/mL (≈ 42.2 µM)
[15]; [16]
  MIC50: 32 µg/mL (≈ 84.5 µM)
